As a reminder, the melting point is the temperature of the solid-liquid transition.

As to `N#CN=C(N)Nc1ccc(Oc2ccc(-c3c[nH]c(COc4ccccc4)n3)cc2)cc1F` [Example 12, N″-cyano-N-(2-fluoro-4-{4-[2-(phenoxymethyl)-1H-imidazol-4-yl]phenoxy}phenyl)guanidine], the melting point was 139 to 141 °C.
The same measure for `Cl.NS(=O)(=O)Nc1ccc(Oc2ccc(-c3c[nH]c(COc4ccccc4)n3)cc2)cc1F`: 185 to 187 °C; for `CCNC(=S)Nc1ccc(Oc2ccc(-c3c[nH]c(COc4ccccc4)n3)cc2)cc1F` [Example 5, N-ethyl-N′-(2-fluoro-4-{4-[2-(phenoxymethyl)-1H-imidazol-4-yl]phenoxy}phenyl)thiourea]: 105 to 107 °C.
`Cc1ccc(NC(=O)Nc2ccc(Oc3ccc(-c4c[nH]c(COc5ccccc5)n4)cc3)cc2)cc1` [Example 1, N-(4-methylphenyl)-N′-(4-{4-[2-(phenoxymethyl)-1H-imidazol-4-yl]phenoxy}phenyl)urea]: the melting point was 192 to 194 °C.
In turn, `CCCCNC(=O)Nc1ccc(Oc2ccc(-c3c[nH]c(COc4ccccc4)n3)cc2)cc1.O=C(O)C(F)(F)F` had a melting point of 85 to 87 °C.
The same measure for `O=C(Nc1ccccc1)Nc1ccc(Oc2ccc(-c3c[nH]c(COc4ccccc4)n3)cc2)cc1` [Example 8, N-(4-{4-[2-(phenoxymethyl)-1H-imidazol-4-yl]phenoxy}phenyl)-N′-phenylurea]: 146 to 148 °C; for `CCNC(=S)Nc1ccc(Oc2ccc(-c3c[nH]c(COc4ccccc4)n3)cc2)cc1` [Example 4, N-ethyl-N′-(4-{4-[2-(phenoxymethyl)-1H-imidazol-4-yl]phenoxy}phenyl)thiourea]: 178 to 180 °C.
In the case of `NC(=O)Nc1ccc(Oc2ccc(-c3c[nH]c(COc4ccccc4)n3)cc2)cc1` [Example 3, N-(4-{4-[2-(phenoxymethyl)-1H-imidazol-4-yl]phenoxy}phenyl)urea] it was 200 to 202 °C; in that of `CC(C)NC(=O)Nc1ccc(Oc2ccc(-c3c[nH]c(COc4ccccc4)n3)cc2)cc1` [Example 7, N-isopropyl-N′-(4-{4-[2-(phenoxymethyl)-1H-imidazol-4-yl]phenoxy}phenyl)urea], 184 to 186 °C; in that of `NC(=N[N+](=O)[O-])Nc1ccc(Oc2ccc(-c3c[nH]c(COc4ccccc4)n3)cc2)cc1F` [Example 13, N-(2-fluoro-4-{4-[2-(phenoxymethyl)-1H-imidazol-4-yl]phenoxy}phenyl)-N″-nitroguanidine], 193 to 195 °C.
The molecule `NC(=S)Nc1ccc(Oc2ccc(-c3c[nH]c(COc4ccccc4)n3)cc2)cc1F` [Example 6, N-(2-fluoro-4-{4-[2-(phenoxymethyl)-1H-imidazol-4-yl]phenoxy}phenyl)thiourea] came in with a melting point of 171 to 173 °C.

(Values after US8188133B2, “Imidazole derivatives, preparation and user thereof as medicine” (Ipsen Pharma S.A.S., priority 2006, dated 2012).)
